# Reference: patent US20100292335A1, “USE OF ORGANIC COMPOUNDS” (priority 2007, published 2010)
# Test system: bradykinin peptides BK-(1-7), BK-(1-9)
# Assay: Bradykinin peptide levels in blood and tissues of non-diabetic and streptozotocin-diabetic (mRen-2)27 rats after 16 weeks aliskiren
# Assay type: in vivo, transgenic (mRen-2)27 rats
# Conditions: for Effect of aliskiren on BK-(1-7) level / Effect of aliskiren on BK-(1-9) level / Effect of aliskiren on BK-(1-7)/(1-9) ratio: 10 mg/kg/day 16 weeks, 10 mg/kg/day; for Heart BK-(1-7), Mean ± SEM / Heart BK-(1-7)/(1-9) ratio, Mean ± SEM / Heart BK-(1-9), Mean ± SEM: aliskiren 10 mg/kg/day 16 weeks
# Protocol: As an example, diabetes is induced in 6 week old female heterozygous transgenic (mRen-2)27 rats by administration of 55 mg/kg streptozotocin diluted in […], pH 4.5 by tail vein injection. Non-diabetic rats are injected with citrate buffer alone [Campbell D J, Kelly D J, Wilkinson-Berka J L, Cooper M E, Skinner S L. Increased bradykinin and “normal” angiotensin peptide levels in diabetic Sprague-Dawley and transgenic (mRen-2)27 rats. Kidney Int 1999; 56:211-221.1. Diabetic and non-diabetic rats are randomized to receive either no drug or aliskiren (10 mg/kg/day by osmotic minipump) from 6-7 weeks of age for a duration of 16 weeks. The minipumps are changed every 2 weeks and the amount of aliskiren in the minipumps is adjusted according to the body weight of the rats. Diabetic rats are injected subcutaneously with 2-4 units insulin (Ultratard, Novo Nordisk, Denmark).every second day (3 times a week). If rats have continuously elevated blood glucose levels (>33.3 mmol/L) over a couple of weeks, they are injected with 3 units every day. When glucose levels decrease to 33.3 mmol/L they are administered 2-4 units insulin every second day. After 16 weeks drug treatment, rats are anesthetized with ketamine (75 mg/kg) and xylazine (10 mg/kg) in combination, and blood and tissue is collected for peptide assay. Peptides are measured as previously described [Lawrence A C, Evin G, Kladis A, Campbell D J. An alternative strategy for the radioimmunoassay of angiotensin peptides using amino-terminal-directed antisera: measurement of eight angiotensin peptides in human plasma. J Hypertens 1990; 8:715-724; Campbell D J, Lawrence A C, Towrie A, Kladis A, Valentijn A J. Differential regulation of angiotensin peptide levels in plasma and kidney of the rat. Hypertension 1991; 18:763-773; Campbell D J, Kladis A, Duncan A-M. Nephrectomy, converting enzyme inhibition and angiotensin peptides. Hypertension 1993; 22:513-522; Campbell D J, Kladis A, Duncan A-M. Bradykinin peptides in kidney, blood, and other tissues of the rat. Hypertension 1993; 21:155-165; Campbell D J, Kladis A, Duncan A-M. Effects of converting enzyme inhibitors on angiotensin and bradykinin peptides. Hypertension 1994; 23:439-449; Campbell D J, Rong P, Kladis A, Rees B, Skinner S L. Angiotensin and bradykinin peptides in the TGR(mRen-2)27 rat. Hypertension 1995; 25:1014-1020]. Only the left kidney is collected for peptide assay. The heart refers to the cardiac ventricles (both right and left ventricle). The Ang I levels in heart are below the limit of detection of the assay.
# There are 4 groups of rats: • 1. Non-diabetic control. • 2. Non-diabetic administered aliskiren 10 mg/kg/day. • 3. Diabetic control. • 4. Diabetic administered aliskiren 10 mg/kg/day.
# [1] = Heart, control rats, listed as Aliskiren
# [2] = Heart, diabetic rats, listed as Aliskiren
structure (smiles),measurement,setting,value
"COCCCOc1cc(C[C@@H](C[C@H](N)[C@@H](O)C[C@H](C(=O)NCC(C)(C)C(N)=O)C(C)C)C(C)C)ccc1OC [aliskiren, 2(S),4(S),5(S),7(S)-N-(3-amino-2,2-dimethyl-3-oxopropyl)-2,7-di(1-methylethyl)-4-hydroxy-5-amino-8-[4-methoxy-3-(3-methoxy-propoxy)phenyl]-octanamide]",Effect of aliskiren on BK-(1-7) level,"Blood, control rats",does not affect
same,Effect of aliskiren on BK-(1-9) level,"Blood, control rats",does not affect
same,Effect of aliskiren on BK-(1-7) level,"Blood, diabetic rats",does not affect
same,Effect of aliskiren on BK-(1-7)/(1-9) ratio,"Blood, diabetic rats",increase
same,Effect of aliskiren on BK-(1-9) level,"Blood, diabetic rats",does not affect
same,Effect of aliskiren on BK-(1-7) level,"Brain, control rats",does not affect
same,Effect of aliskiren on BK-(1-9) level,"Brain, control rats",does not affect
same,Effect of aliskiren on BK-(1-7) level,"Brain, diabetic rats",does not affect
same,Effect of aliskiren on BK-(1-9) level,"Brain, diabetic rats",does not affect
same,Effect of aliskiren on BK-(1-7) level,"Heart, control rats",increased
same,Effect of aliskiren on BK-(1-7)/(1-9) ratio,"Heart, control rats",did not affect
same,Effect of aliskiren on BK-(1-9) level,"Heart, control rats",increased
same,Effect of aliskiren on BK-(1-7) level,[1],increase
same,Effect of aliskiren on BK-(1-7)/(1-9) ratio,[1],no change
same,Effect of aliskiren on BK-(1-9) level,[1],increase
same,"Heart BK-(1-7), Mean ± SEM","Heart, control rats",19.2 ± 2.5 fmol/g
same,"Heart BK-(1-7)/(1-9) ratio, Mean ± SEM","Heart, control rats",1.88 ± 0.18 mol/mol
same,"Heart BK-(1-9), Mean ± SEM","Heart, control rats",10.6 ± 1.2 fmol/g
same,Effect of aliskiren on BK-(1-7) level,"Heart, diabetic rats",increased
same,Effect of aliskiren on BK-(1-7)/(1-9) ratio,"Heart, diabetic rats",did not affect
same,Effect of aliskiren on BK-(1-9) level,"Heart, diabetic rats",increased
same,Effect of aliskiren on BK-(1-7) level,[2],increase
same,Effect of aliskiren on BK-(1-7)/(1-9) ratio,[2],no change
same,Effect of aliskiren on BK-(1-9) level,[2],increase
same,"Heart BK-(1-7), Mean ± SEM","Heart, diabetic rats",13.9 ± 1.5 fmol/g
same,"Heart BK-(1-7)/(1-9) ratio, Mean ± SEM","Heart, diabetic rats",2.47 ± 0.37 mol/mol
same,"Heart BK-(1-9), Mean ± SEM","Heart, diabetic rats",6.4 ± 0.7 fmol/g
same,Effect of aliskiren on BK-(1-7) level,"Kidney, control rats",does not affect
same,Effect of aliskiren on BK-(1-9) level,"Kidney, control rats",does not affect
same,Effect of aliskiren on BK-(1-7) level,"Kidney, diabetic rats",does not affect
same,Effect of aliskiren on BK-(1-9) level,"Kidney, diabetic rats",does not affect
same,Effect of aliskiren on BK-(1-7) level,"Lung, control rats",does not affect
same,Effect of aliskiren on BK-(1-9) level,"Lung, control rats",does not affect
same,Effect of aliskiren on BK-(1-7) level,"Lung, diabetic rats",does not affect
same,Effect of aliskiren on BK-(1-9) level,"Lung, diabetic rats",does not affect
